From patent US11999805B1, “Peptide inhibitors of CRISPR-Cas9” (priority 2020, dated 2024)
Entries after “also recorded” stand apart in the source; their conditions may differ. Where two headings read alike, the source gives them in different places. Residues, ends and D or L forms follow the SMILES beside them. No end group written: not given here.

Legend:
SpyCas9 [1] = molecular target: T1, SpyCas9 (Streptococcus pyogenes serotype M1, UniProt Q99ZW2); type: biochemical, S. pyogenes; settings: for IC50: read-out: SpyCas9 IC50, FRET cleavage assay, concentration curves, 0.5 μM Cas9, 50 nM DNA substrate
T1 sequence (Q99ZW2 whole entry): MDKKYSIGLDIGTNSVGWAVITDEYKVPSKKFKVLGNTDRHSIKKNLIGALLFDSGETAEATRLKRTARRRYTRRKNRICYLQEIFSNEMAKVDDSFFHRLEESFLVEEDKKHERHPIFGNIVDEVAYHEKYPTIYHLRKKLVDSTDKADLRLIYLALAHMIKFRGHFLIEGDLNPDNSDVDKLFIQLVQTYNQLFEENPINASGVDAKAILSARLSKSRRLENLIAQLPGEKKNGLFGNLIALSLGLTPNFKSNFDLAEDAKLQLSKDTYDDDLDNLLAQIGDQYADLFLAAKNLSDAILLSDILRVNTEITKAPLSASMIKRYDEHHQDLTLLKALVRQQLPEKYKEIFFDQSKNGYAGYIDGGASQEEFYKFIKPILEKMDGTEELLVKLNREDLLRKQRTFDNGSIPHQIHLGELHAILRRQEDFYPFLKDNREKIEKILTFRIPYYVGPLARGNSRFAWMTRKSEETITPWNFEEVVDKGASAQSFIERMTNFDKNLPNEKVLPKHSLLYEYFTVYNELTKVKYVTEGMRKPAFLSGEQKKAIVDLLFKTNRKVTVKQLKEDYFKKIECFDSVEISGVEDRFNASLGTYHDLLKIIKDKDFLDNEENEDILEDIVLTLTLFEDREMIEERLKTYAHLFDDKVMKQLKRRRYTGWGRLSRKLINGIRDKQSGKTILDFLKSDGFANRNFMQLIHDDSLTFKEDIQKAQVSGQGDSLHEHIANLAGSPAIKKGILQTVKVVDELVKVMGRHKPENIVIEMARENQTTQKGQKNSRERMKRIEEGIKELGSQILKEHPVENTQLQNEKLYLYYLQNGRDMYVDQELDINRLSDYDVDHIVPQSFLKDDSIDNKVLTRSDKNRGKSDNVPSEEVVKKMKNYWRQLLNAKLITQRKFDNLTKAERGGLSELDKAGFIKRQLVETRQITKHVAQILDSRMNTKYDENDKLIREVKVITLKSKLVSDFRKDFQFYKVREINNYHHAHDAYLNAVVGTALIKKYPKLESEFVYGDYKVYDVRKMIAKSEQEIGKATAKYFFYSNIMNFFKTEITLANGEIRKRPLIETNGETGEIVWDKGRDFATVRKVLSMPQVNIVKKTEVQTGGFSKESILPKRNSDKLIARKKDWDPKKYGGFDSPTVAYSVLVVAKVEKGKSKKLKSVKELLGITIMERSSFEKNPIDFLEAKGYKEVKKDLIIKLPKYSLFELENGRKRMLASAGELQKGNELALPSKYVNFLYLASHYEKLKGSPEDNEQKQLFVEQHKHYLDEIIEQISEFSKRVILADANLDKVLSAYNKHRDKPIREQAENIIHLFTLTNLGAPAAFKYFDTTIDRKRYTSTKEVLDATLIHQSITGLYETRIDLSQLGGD
Experimental: (§1) To determine whether synthetic peptides would inhibit Cas9 cleavage activity, 200 peptide sequences were selected for chemical synthesis based on the following criteria: (1) peptides enriched after independent panning on RNP immobilized on both the Monomeric Avidin and NeutrAvidin columns, (2) Higher Boman index (>2.3), the computed potential protein-protein interaction for a given amino-acids sequence (3) a predicted instability index below 50. Theses peptides were screened at 200 μM for inhibition of Cas9 cleavage activity using the recently developed HT FRET-based assay using a dual-quencher substrate with low background and high sensitivity. See Seamon K J, Light Y K, Saada E A, Schoeniger J S, Harmon B. 2018. Versatile High-Throughput Fluorescence Assay for Monitoring Cas9 Activity. Analytical Chemistry 90:6913-6921. This assay specifically measures DNA substrate cleavage, and is able to differentiate between cleavage of a single strand of DNA and cleavage of both DNA strands.
(§2) Reactions (10 μL tubes) were set up in Cas9 reaction buffer (20 mM Tris-HCl, pH 7.5, 100 mM NaCl, 5 mM MgCl2, 0.1 mM EDTA) containing 50 nM annealed DNA substrate, 1.5 μM sgRNA, and 500 nM Cas9 in the wells of a black low volume 384-well plate. The reactions were incubated for 1 hour at ambient temperature; then, 10 μL of 8 M Gdn-HCl was added to quench the reaction before the plates were covered with an aluminum seal and incubated at 80° C. for 10 minutes. The fluorescence was read in a Tecan Infinite M1000 or SPARK plate spectrofluorometer (Tecan).
(§3) The peptides were diluted 2-fold from 200 to 12.5 μM and incubated for 1 hour with 500 nM SpyCas9, gRNA prior to addition of 50 nM FRET DNA substrate for 1 hour. […] Data are the average ±SD of three replicate wells.
(§4) For the 11 original peptides reactions (10 μL) were set up in Cas9 reaction buffer [20 mM Tris-HCl, pH 7.5, 100 mM NaCl, 5 mM MgCl2, 0.1 mM EDTA] containing 50 nM annealed DNA substrate, 1.5 μM sgRNA, and 0.5 μM Cas9 in the wells of a black low volume 384-well plate. The reactions were incubated for 1 hour at ambient temperature with the indicated concentration of peptide; then, 10 μL, of 8 M Guanidine-HCl was added to quench the reaction. The plates were covered with an aluminum seal and incubated at 75° C. for 10 minutes and cooled down to RT before reading.
(§5) The % inhibition was determined by subtracting normalized relative fluorescent value to Cas9 without peptides (% activity) from 100% cleavage activity of CjeCas9, SauCas9, SpyCas9 by FRET assay. Data are the average ±SD of eleven replicate wells from three technical replicates at the indicated concentration of peptides.
(§6) FIGS. 12A, 12B, and 12C show graphs of measurements and fitted curves of concentration dependent inhibition of mutated peptides against Cas9 variants. The inhibition was measured as relative fluorescent value to Cas9 without peptides (% activity) of CjeCas9 (line with squares), SauCas9 (line with diamonds), SpyCas9 (line with triangles) by FRET assay with the indicated concentration of peptides and compared to original peptides (line with circles). Data are the average ±SD of eleven replicate wells from three technical replicates.

SpyCas9 [2] = type: biochemical, S. pyogenes
Experimental: as §1, §2, §3, §4, §5, §6

SauCas9 [3] = molecular target: T2, SauCas9 (Staphylococcus aureus, UniProt J7RUA5); assay: HT FRET-based Cas9 cleavage activity assay, SauCas9; type: biochemical, S. aureus
T2 construct: made in house; host or cells: E. coli BL21(star)DE3
Experimental: (§7) To evaluate the ability of identified peptides to inhibit other Cas9 variants, SauCas9 and CjeCas9 cleavage assays were used to quantitatively measure changes in activity. […] The inhibition was measured as relative fluorescent value to Cas9 without peptides (% activity) of CjeCas9 (Top), SauCas9 (middle), SpyCas9 (bottom) by FRET assay with the indicated concentration of peptides. Data are the average ±SD of eleven replicate wells from three technical replicates.
as §4, §5, §6

CjeCas9 = molecular target: T3, CjeCas9 (Campylobacter jejuni subsp. jejuni serotype O:2, UniProt Q0P897); assay: HT FRET-based Cas9 cleavage activity assay, CjeCas9; type: biochemical, C. jejuni
T3 construct: made in house; host or cells: E. coli BL21(star)DE3
T3 sequence (Q0P897 whole entry): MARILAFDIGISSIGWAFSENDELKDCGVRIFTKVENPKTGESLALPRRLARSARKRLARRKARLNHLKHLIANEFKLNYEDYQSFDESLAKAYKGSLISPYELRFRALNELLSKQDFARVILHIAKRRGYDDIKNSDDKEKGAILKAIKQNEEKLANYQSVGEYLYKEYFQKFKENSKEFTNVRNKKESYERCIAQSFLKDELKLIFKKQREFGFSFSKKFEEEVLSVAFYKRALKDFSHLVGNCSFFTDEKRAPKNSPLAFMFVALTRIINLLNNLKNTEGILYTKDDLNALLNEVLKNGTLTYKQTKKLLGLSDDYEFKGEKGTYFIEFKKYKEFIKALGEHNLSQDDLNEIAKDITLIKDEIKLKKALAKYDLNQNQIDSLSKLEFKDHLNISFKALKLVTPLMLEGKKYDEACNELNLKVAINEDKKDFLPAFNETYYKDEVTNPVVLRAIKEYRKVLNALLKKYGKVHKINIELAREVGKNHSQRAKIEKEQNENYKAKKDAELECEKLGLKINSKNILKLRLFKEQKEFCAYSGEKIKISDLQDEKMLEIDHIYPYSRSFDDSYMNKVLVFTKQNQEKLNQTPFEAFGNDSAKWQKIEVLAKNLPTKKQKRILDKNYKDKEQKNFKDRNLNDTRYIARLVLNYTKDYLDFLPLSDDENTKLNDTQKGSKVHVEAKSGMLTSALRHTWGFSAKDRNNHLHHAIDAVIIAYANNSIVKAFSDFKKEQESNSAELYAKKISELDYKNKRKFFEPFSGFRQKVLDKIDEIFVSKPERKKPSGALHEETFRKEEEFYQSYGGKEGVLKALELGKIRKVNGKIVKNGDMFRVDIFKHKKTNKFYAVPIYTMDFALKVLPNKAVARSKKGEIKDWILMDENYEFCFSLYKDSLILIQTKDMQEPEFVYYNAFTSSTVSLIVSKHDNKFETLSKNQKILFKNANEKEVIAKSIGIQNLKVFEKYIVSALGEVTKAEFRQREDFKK
Experimental: as §7, §4, §5, §6

SpyCas9 [4] = molecular target: T1, SpyCas9; type: cell-based, S. pyogenes; design: host or cells: protein RNP lipofected into A549 reporter cells; settings: for reduction of SpyCas9 editing (relative % CRISPR editing): A549 GFP reporter cells, 500 ng plasmid 24 h before SpyCas9 RNP, compared to plasmid control; for cell toxicity: A549 reporter cells
Source text: The cell-based reporter assay was generated using an endonuclease surrogate reporter construct expressed in A549 cells. This construct was composed of genes encoding two fluorescent proteins (red fluorescent protein (RFP) and green fluorescent protein (GFP)) linked by the endonuclease targeting sequence. In the absence of endonuclease (e.g. Cas9) expression, the reporter was designed to express the RFP but not GFP as it is placed out of frame. Upon expression of Cas9 with a targeting gRNA, the RNP introduces a double stranded break at the target site upstream of the GFP genes leading to frameshift mutations and expression of GFP (FIG. 7). An AAVS1 protospacer and PAM sequence used for targeting by SpyCas9 RNP is in between the RFP and GFP genes. RNP targeting to the AASV1+PAM sequence in the cell's nucleus results in a DSB and error prone NHEJ will likely cause either of the GFP genes to now become in-frame and induce GFP expression. The expression of GFP is strictly dependent on the presence of nuclease activity from endonucleases that specifically recognizes the target sequence in the reporter construct. A549 reporter cells for SpyCas9 were reverse transfected with 100-500 ng of indicated plasmids using Lipofectamine, the plasmids were at a 1:1 ratio with SpyCas9 RNP. […] After 24 hours the media was changed, and 100-500 ng of SpyCas9 RNP was forward transfected using CRISPRMax (Thermo Fisher).
Editing was assessed at 48 hours and 72 hours post transfection using the CX7 plate imager and/or flow cytometry using an ACCURI C6 flow cytometer (BD BIOSCIENCES) with FCS EXPRESS SOFTWARE (DE NOVO SOFTWARE). Cells were counted as edited if their FL-1 fluorescence was greater than that of the no RNP control. […] Error bars represent ±SD across technical replicates (n=2).

SauCas9 [5] = molecular target: T4, SauCas9 (Staphylococcus aureus, UniProt J7RUA5); assay: HT FRET-based Cas9 cleavage activity assay, SauCas9; type: biochemical, S. aureus; remark: listed apart in the source
T4 construct: made in house; host or cells: E. coli BL21(star)DE3
T4 sequence (J7RUA5 whole entry, looked up): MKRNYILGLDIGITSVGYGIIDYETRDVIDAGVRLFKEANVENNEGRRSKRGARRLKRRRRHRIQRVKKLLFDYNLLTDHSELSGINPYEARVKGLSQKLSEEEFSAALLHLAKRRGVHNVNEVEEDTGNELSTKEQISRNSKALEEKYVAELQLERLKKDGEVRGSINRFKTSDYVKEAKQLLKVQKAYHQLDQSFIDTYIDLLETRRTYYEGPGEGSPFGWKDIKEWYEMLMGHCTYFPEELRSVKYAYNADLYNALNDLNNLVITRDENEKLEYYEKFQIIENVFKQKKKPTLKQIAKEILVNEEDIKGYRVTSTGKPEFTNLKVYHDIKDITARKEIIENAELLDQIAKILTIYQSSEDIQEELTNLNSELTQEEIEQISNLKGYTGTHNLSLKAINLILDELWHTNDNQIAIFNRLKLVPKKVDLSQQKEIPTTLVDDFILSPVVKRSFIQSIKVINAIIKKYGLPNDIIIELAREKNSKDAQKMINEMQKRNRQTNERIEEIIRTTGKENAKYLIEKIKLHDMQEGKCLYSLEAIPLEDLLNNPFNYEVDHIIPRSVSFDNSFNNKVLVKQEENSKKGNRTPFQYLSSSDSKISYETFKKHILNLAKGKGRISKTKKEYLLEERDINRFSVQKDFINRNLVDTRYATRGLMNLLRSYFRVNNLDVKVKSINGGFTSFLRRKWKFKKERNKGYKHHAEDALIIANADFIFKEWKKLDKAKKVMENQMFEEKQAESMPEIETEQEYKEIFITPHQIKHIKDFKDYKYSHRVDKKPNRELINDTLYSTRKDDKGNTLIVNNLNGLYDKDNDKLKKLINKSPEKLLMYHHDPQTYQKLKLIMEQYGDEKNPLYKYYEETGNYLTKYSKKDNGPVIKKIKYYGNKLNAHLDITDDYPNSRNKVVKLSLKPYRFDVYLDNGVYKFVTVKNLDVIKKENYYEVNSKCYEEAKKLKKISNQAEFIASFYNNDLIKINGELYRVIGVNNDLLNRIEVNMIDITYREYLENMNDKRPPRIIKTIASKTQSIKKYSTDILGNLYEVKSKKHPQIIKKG
Experimental: as §7, §4, §5, §6

SpyCas9 [6] = molecular target: T1, SpyCas9; assay: Beacon DNA binding assay (Cas9 RNP binding to DNA substrate); design: species or system S. pyogenes
Experimental: To determine the mechanism of action of these peptide inhibitors, a binding assay was performed to determine if inhibitors are blocking Cas9 RNP binding to the DNA substrate. The beacon DNA binding assay was adapted and performed as described in Mekler V, Minakhin L, Semenova E, Kuznedelov K, Severinov K. 2016. Kinetics of the CRISPR-Cas9 effector complex assembly and the role of 3′-terminal segment of guide RNA. Nucleic Acids Res 44:2837-45. DNA probes were prepared from unmodified and chromophore-labeled DNA oligonucleotides synthesized by Integrated DNA Technologies. Equimolar amounts of synthetic complementary strands were mixed in a buffer containing 40 mM Tris, pH 7.9, 100 mM NaCl; heated for 2 min at 90° C. and slowly cooled to 20° C. The PAM-distal ends of the beacon target and non-target strands were labeled with fluorescein and Iowa Black® FQ, respectively. Both beacons mimic native target DNA and bind Cas9/sgRNA. The fluorescent signal is increased when Cas9 binds the DNA substrate and a helix forms with the target substrate strand and gRNA resulting in dissociation of oligo 3, leading to increase in fluorescent signal.
Data are the average ±SD of three replicate wells.

| Compound | IC50 (SpyCas9 [1]) [µM] | activity against SpyCas9, SauCas9 and CjeCas9 (in words) (SpyCas9 [2]) | IC50 (SauCas9 [3]) [µM] | IC50 (CjeCas9) [µM] | reduction of SpyCas9 editing (relative % CRISPR editing) (SpyCas9 [4]) [%] | cell toxicity (SpyCas9 [4]) | also measured |
| --- | --- | --- | --- | --- | --- | --- | --- |
| NRSHKILLHYNGCHYRLFLRSL [Peptide 90-1-27] | 28.5 | particularly strong activity | 45 | 58.3 |  |  |  |
| IAGFRREWFNQNTYFENWHADR [Peptide 15] |  |  |  |  | 21±4.2 | without cell toxicity |  |
| CC[C@H](C)[C@H](NC(=O)[C@H](CCCNC(=N)N)NC(=O)[C@H](Cc1ccc(O)cc1)NC(=O)[C@H](Cc1ccc(O)cc1)NC(=O)[C@@H](N)CC(C)C)C(=O)N[C@@H](CCSC)C(=O)N[C@@H](CC(C)C)C(=O)N[C@@H](CO)C(=O)N[C@@H](CS)C(=O)N1CCC[C@H]1C(=O)N[C@@H](CCCCN)C(=O)N[C@@H](Cc1ccc(O)cc1)C(=O)N[C@@H](Cc1ccc(O)cc1)C(=O)N1CCC[C@H]1C(=O)N[C@@H](CS)C(=O)N[C@@H](CCC(=O)O)C(=O)N[C@@H](CC(C)C)C(=O)N[C@H](C(=O)NCC(=O)N[C@@H](Cc1c[nH]cn1)C(=O)N[C@H](C(=O)N[C@@H](CO)C(=O)O)[C@@H](C)O)C(C)C [Peptide 50] (H-LYYRIMLSCPKYYPCELVGHTS-OH) | 145 |  |  |  | 30±1.4 | without cell toxicity |  |
| VRVFSAYERLLIRRRRRRRRAG [Peptide 60-1-10] | 27.2 | particularly strong activity | 27.3 | 30.1 |  |  |  |
| KERRRSMMQLSVKSYTLFLGGT [Peptide 82-2-21] | 31.8 | particularly strong activity | 40.9 | 51.8 |  |  |  |
| VCAFSADESLLIRRRHQRRRAG [Peptide 60] | 92.2 |  |  |  | 30±2.3 | without cell toxicity |  |
| VYDFYRMLSHFFLKGPSR [Peptide 91] |  |  |  |  |  |  | activity of SpyCas9 (% activity, FRET) (SpyCas9 [1]; peptide 100 μM): significantly reduced activity; activity of SpyCas9 (% activity, FRET) (SpyCas9 [1]; peptide 200 μM): significantly reduced activity; activity of SauCas9 (% activity, FRET) (SauCas9 [5]; peptide 100 μM): significantly reduced activity; activity of SauCas9 (% activity, FRET) (SauCas9 [5]; peptide 200 μM): significantly reduced activity; also recorded: reduced SauCas9 activity; mechanism subset: blocks Cas9 RNP binding to target DNA or other mechanism (SpyCas9 [6]): block Cas9 RNP binding to the target DNA; binding of SpyCas9 RNP to DNA substrate (beacon fluorescence) (SpyCas9 [6]; peptide 40 μM, SpyCas9 500 nM, DNA substrate 50 nM): unaltered; also recorded: did not reduce substrate binding |
| DRSHKILLRYNGCHYRLLQRSL [Peptide 90] | 114 |  |  |  | 35±2.1 | without cell toxicity |  |
